The results in this text go back to patent US20240165226A1, “COMBINATION TREATMENT OF CD38-EXPRESSING TUMORS” (GENMAB A/S, priority 2006, published 2024).

The subject of the test is plasma cells in implanted synovial tissue. In words: RA-SCID mouse model, synovial tissue xenografts. It counts as in vivo, SCID-mice. As to conditions: 12 mg/kg i.v. day 8, day 14. The text has this:
SCID-mice, strain C.B.-17/lcrCrl-SCID-bg, male/female, 4-12 weeks, purchased from Charles River Laboratories Nederland (Maastricht, the Netherlands) were kept in IVC cages under standard conditions of temperature and light, and were fed laboratory chow and water ad libitum. Prior to implantation, mice (three mice in each experimental group, day 0) were anesthetized by intraperitoneal injection of ketamine (NIMATEK, EuroVet) and xylazine (Rompun, Bayer) at ratio 1:1. A small incision of the skin was made using surgical scissors. […] On day 1 of the experiment, remaining synovial tissue was analyzed in order to check for B cells in the inflamed synovial transplants. -005 (12 mg/kg) or control antibody (anti-KLH, 30 mg/kg) was injected (i.v.), in a volume of 200 μl on day 8 of the experiment. […]
Scoring of stained synovial tissue xenografts was performed in a blinded fashion by two trained persons. […] The staining intensity in the other sections was then scored on a scale of 0 to 8, relative to the reference section.
Scoring of staining intensity was analyzed by Kruskal-Wallis one-way ANOVA followed by Dunn's multiple comparison test using Graph Pad Prism version 4.01 (Graph Pad software, Inc., San Diego, CA, USA).

As to “-005: human monoclonal IgG1 anti-CD38 antibody, VL region SEQ ID No:12 and VH region SEQ ID No:17”, the “numbers of anti-CD38-positive plasma cells in xenografts” value was “reduced” and the “numbers of plasma cells (anti-CD138 staining) in xenografts” value was “reduced numbers of plasma cells”.
